According to US12590950B2, “Methods for predicting ER-mediated DNA damage” (UNIVERSITY OF MASSACHUSETTS, priority 2019, dated 2026):

How the values were obtained:
[1] = system: parental 76N-tert cell line; assay: S9.6 immunostaining (R-loops) in parental 76N-tert cells without ERα; type: cell-based, human; conditions: no ERα
Protocol: Generation of 76N-Tert-ESR1 cells: The 76N-Tert cell line, a human mammary epithelial cell line immortalized with expression of human telomerase reverse transcriptase (TERT) was provided (35). These cells were grown in F-media (250 mL DMEM (-pyruvate) (Gibco #11965-092), 250 mL Ham's F12 (Gibco #11765-054), 5% FBS, 250 ng/mL hydrocortisone (Sigma #H4001), 10 ng/mL human epidermal growth factor (Tonbo Biosciences #21-8356-U100), 8.6 ng/mL cholera toxin vibrio (Millipore Sigma #227035), 1 μg/mL human insulin solution, and 1× antibiotic-antimycotic and passaged every 2-3 days.
(§1) Immunostaining: Cells were grown in clearing media for 48 h and plated on 20 mm coverslip in 12 well plates with a density of 2×10^5 cells/well. After 24 h of growth, cells were treated with 10 nM E2, 1 or 5 μM BP3, and 1 or 5 μM PP with or without 1 μM fulvestrant. γH2AX/ERα: Cells were fixed in ice-cold methanol (100%) for 10 mins and quenched with 0.1 M Glycine for 15 mins. Cells were washed with 1×PBS, blocked in 2% BSA/PBS with 0.1% Triton-X 100 for 1 hr at room temperature (RT), incubated overnight with γH2AX antibody (Cell Signaling #9718 S) or ERα antibody (Santa Cruz Biotechnology #sc-8002) at 4° C. and 1 hour with secondary antibody. S9.6: Cells were fixed in ice-cold 100% methanol for 10 min at −20° C., permeabilized in 100% acetone for 1 min at RT, blocked for 30 min in saline sodium citrate pH 7 (SSC, 4×), 3% BSA, 0.1% Triton-X and incubated with S9.6 (Kerafast #ENH001) 2 hr at RT followed by 1 h with secondary antibody. If indicated, slides were treated with RNase H (NEB #M0297L) for 4 hr at 37° C. prior to incubation with primary antibody. Stained cells were mounted with Vectashield mounting medium containing DAPI (Vector Laboratories #H-1200). Slides were imaged at 60× (immersion oil) with Nikon A1 Spectral Confocal microscope. Analysis of γH2AX and S9.6 intensity per nucleus or foci per nucleus was calculated using Nikon analysis software, where DAPI was used as a mask for the nucleus.

MCF-7 cells [2] = assay: 53BP1 immunostaining in MCF-7 cells; type: cell-based, human; conditions: E2 10-100 nM, BP3 1-5 μM, PP 1-5 μM
estrogen receptor = target: T1, estrogen receptor (Homo sapiens, UniProt P03372); assay: Luciferase reporter assay (ERE-luciferase transactivation) in T47D-KBluc cells; type: cell-based; conditions: for LOEC (lowest-observed-effect-concentration) for transcription in luciferase assay: T47D-KBluc, 24 h treatment
T1 sequence (P03372 1-595): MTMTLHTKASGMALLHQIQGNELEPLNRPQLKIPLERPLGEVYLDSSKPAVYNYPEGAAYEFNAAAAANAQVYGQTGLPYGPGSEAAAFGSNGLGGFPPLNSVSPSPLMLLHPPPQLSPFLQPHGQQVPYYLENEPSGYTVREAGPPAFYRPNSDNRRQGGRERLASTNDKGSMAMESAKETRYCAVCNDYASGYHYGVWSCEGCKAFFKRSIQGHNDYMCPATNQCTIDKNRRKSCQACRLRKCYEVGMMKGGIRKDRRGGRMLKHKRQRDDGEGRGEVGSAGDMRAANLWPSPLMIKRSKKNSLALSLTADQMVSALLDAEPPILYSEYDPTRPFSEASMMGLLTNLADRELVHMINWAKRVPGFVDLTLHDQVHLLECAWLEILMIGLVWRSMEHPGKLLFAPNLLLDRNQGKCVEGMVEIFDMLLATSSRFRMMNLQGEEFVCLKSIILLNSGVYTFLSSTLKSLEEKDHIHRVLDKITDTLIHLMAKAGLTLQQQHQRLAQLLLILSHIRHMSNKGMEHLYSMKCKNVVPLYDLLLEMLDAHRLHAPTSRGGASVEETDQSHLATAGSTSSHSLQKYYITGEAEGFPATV

[3] = Acute oral exposure of ovariectomized mice: uterine weight; type: in vivo, mouse; conditions: 4 days, BP3 3000, PP 10000 μg/kg/d
Source text: Animal Treatment: Forty mature female mice (8 weeks old) BALB/c mice were purchased from Jackson Laboratory and housed in temperature-controlled facilities with a 12-hour alternating day/night light cycle and fed LabChow 5058 ad libitum. All procedures were in accordance with the national guidelines for the care and use of animals and approved by the University of Massachusetts Amherst's Institutional Animal Care and Use Committee.
The mice were ovariectomized before treatment. Briefly, each mouse was anaesthetized with a mix of isofluorance and oxygen. The flanks were shaved, sterilized with betadine and cleaned with alcohol. An incision was made to the skin on the right flank. The underlying muscle layer was nicked to reveal a small hole through which ovary was pulled out by grasping the periovarian fat. A Serrifin clamp was used to hold the ovary. After making sure the blood vessels were constricted to prevent […], the ovary was cut from the uterine horn. The periovarian fat was restored into the peritoneum. The peritoneum was closed with one or two stiches and the skin was closed with 9 mm wound clips. The procedure was repeated on the contralateral side. The mouse was monitored for a week post-procedure and wound clips were removed after 10 days. […]

MCF-7 cells [4] = assay: γH2AX immunostaining (DNA damage) in MCF-7 cells; type: cell-based, human; conditions: E2 10-100 nM, BP3 1-30 μM, PP 1-30 μM
Protocol: as §1, with “After 24 h of growth, cells were treated with 10 nM E2, 1 or 5 μM BP3, and 1 or 5 μM PP with or without 1 μM fulvestrant. γH2AX/ERα: Cells were fixed in ice-cold methanol (100%) for 10 mins and quenched with 0.1 M Glycine for 15 mins.” left out

T47D cells = assay: 53BP1 immunostaining in T47D cells; type: cell-based, human; conditions: E2 10-100 nM, BP3 1-5 μM, PP 1-5 μM

Row | Compound | nuclear S9.6 staining [1] | 53BP1 nuclear intensity (MCF-7 cells [2]) | LOEC (lowest-observed-effect-concentration) for transcription in luciferase assay (estrogen receptor) [µM] | Relative Transactivation Activity at 90%ile or 95%ile (% RTA vs E2) (estrogen receptor; at 95%ile urine concentration of non-pregnant women) [%] | Relative Transactivation Activity at 90%ile or 95%ile (% RTA vs E2) (estrogen receptor; at 95%ile urine concentration of pregnant women) [%] | maximum relative transactivation activity (RTA) compared to 10 nM E2 (estrogen receptor; maximum) [%] | uterine weights compared to the control treatment [3] | nuclear γH2AX intensity (MCF-7 cells [4]) | 53BP1 nuclear intensity (T47D cells)
1 | COc1ccc(C(=O)c2ccccc2)c(O)c1 [BP3, 2-Hydroxy-4-methoxybenzophenone] | low nuclear S9.6 staining | dose-dependent increase | 5 | 18.91 ± 6.62 | 27.16±6.2 | 37 | not sufficient | dose-dependent increase in nuclear γH2AX intensity | higher nuclear 53BP1 intensity over control
2 | C[C@]12CC[C@@H]3c4ccc(O)cc4CC[C@H]3[C@@H]1CC[C@@H]2O [E2, 17β-estradiol, reference compound] | low nuclear S9.6 staining | dose-dependent increases in 53BP1 nuclear intensity |  |  |  |  |  | dose-dependent increase in nuclear γH2AX intensity | dose-dependent increases in 53BP1 nuclear intensity
3 | CCCOC(=O)c1ccc(O)cc1 [PP, propyl parahydroxybenzoate] | low nuclear S9.6 staining | dose-dependent increases in 53BP1 nuclear intensity | 0.5 |  |  |  | not sufficient | dose-dependent increase in nuclear γH2AX intensity | dose-dependent increases in 53BP1 nuclear intensity
